From the supplement of paper PMC10307832

Key:
Assay in all cases: relative viability (nuclei count vs DMSO), 5 days (fraction); higher = more cells survive
Tanzisertib + Alpelisib = compound: O[C@H]1CC[C@H](Nc2ncc3nc(Nc4c(F)cc(F)cc4F)n([C@H]4CCOC4)c3n2)CC1 [Tanzisertib] + Cc1nc(NC(=O)N2CCC[C@H]2C(N)=O)sc1-c1ccnc(C(C)(C)C(F)(F)F)c1 [Alpelisib] (partner 2 µM)
In short: (§1)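 Cells from lung cancer lines were seeded into 1536-well plates and, one day later, dosed by pin tool. Treatments were either a single drug or a fixed dose of an anchor drug with five library-drug doses (not always all listed) in √10 steps. After 5 days, nuclei were stained in a one-step fixation (final 0.05% Triton X-100, 1% formaldehyde, 1 ug/ml Hoechst) and counted on 4× images, and relative viability is the treated-to-vehicle nuclei ratio, as the median of duplicate plates.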

Tanzisertib + Crizotinib = compound: O[C@H]1CC[C@H](Nc2ncc3nc(Nc4c(F)cc(F)cc4F)n([C@H]4CCOC4)c3n2)CC1 [Tanzisertib] + C[C@@H](Oc1cc(-c2cnn(C3CCNCC3)c2)cnc1N)c1c(Cl)ccc(F)c1Cl [Crizotinib] (partner 1 µM)
In short: as §1

Tanzisertib + Foretinib = compound: O[C@H]1CC[C@H](Nc2ncc3nc(Nc4c(F)cc(F)cc4F)n([C@H]4CCOC4)c3n2)CC1 [Tanzisertib] + COc1cc2c(Oc3ccc(NC(=O)C4(C(=O)Nc5ccc(F)cc5)CC4)cc3F)ccnc2cc1OCCCN1CCOCC1 [Foretinib] (partner 0.25 µM)
In short: as §1

Tanzisertib + OSI-027 = compound: O[C@H]1CC[C@H](Nc2ncc3nc(Nc4c(F)cc(F)cc4F)n([C@H]4CCOC4)c3n2)CC1 [Tanzisertib] + COc1cccc2cc(-c3nc([C@H]4CC[C@H](C(=O)O)CC4)n4ncnc(N)c34)[nH]c12 [OSI-027] (partner 0.5 µM)
In short: as §1

Cell Line: NCI-H2405
- relative viability (Tanzisertib + Alpelisib; first compound 0.08 µM): 0.933
- relative viability (Tanzisertib + Alpelisib; first compound 0.253 µM): 0.696
- relative viability (Tanzisertib + Alpelisib; first compound 0.8 µM): 0.805
- relative viability (Tanzisertib + Alpelisib; first compound 2.53 µM): 0.83
- relative viability (Tanzisertib + Alpelisib; first compound 8 µM): 0.547
- relative viability (Tanzisertib + Crizotinib; first compound 0.08 µM): 0.935
- relative viability (Tanzisertib + Crizotinib; first compound 0.253 µM): 0.825
- relative viability (Tanzisertib + Crizotinib; first compound 0.8 µM): 0.828
- relative viability (Tanzisertib + Crizotinib; first compound 2.53 µM): 0.916
- relative viability (Tanzisertib + Crizotinib; first compound 8 µM): 0.789
- relative viability (Tanzisertib + Foretinib; first compound 0.08 µM): 1.1
- relative viability (Tanzisertib + Foretinib; first compound 0.253 µM): 1.08
- relative viability (Tanzisertib + Foretinib; first compound 0.8 µM): 1.07
- relative viability (Tanzisertib + Foretinib; first compound 2.53 µM): 1.17
- relative viability (Tanzisertib + Foretinib; first compound 8 µM): 1.03
- relative viability (Tanzisertib + OSI-027; first compound 0.08 µM): 0.7
- relative viability (Tanzisertib + OSI-027; first compound 0.253 µM): 0.596
- relative viability (Tanzisertib + OSI-027; first compound 0.8 µM): 0.682
- relative viability (Tanzisertib + OSI-027; first compound 2.53 µM): 0.703
- relative viability (Tanzisertib + OSI-027; first compound 8 µM): 0.532

Cell Line: NCI-H3122
- relative viability (Tanzisertib + Alpelisib; first compound 0.08 µM): 0.965
- relative viability (Tanzisertib + Alpelisib; first compound 0.253 µM): 0.735
- relative viability (Tanzisertib + Alpelisib; first compound 0.8 µM): 0.844
- relative viability (Tanzisertib + Alpelisib; first compound 2.53 µM): 0.731
- relative viability (Tanzisertib + Alpelisib; first compound 8 µM): 0.782
- relative viability (Tanzisertib + Crizotinib; first compound 0.08 µM): 0.302
- relative viability (Tanzisertib + Crizotinib; first compound 0.253 µM): 0.306
- relative viability (Tanzisertib + Crizotinib; first compound 0.8 µM): 0.288
- relative viability (Tanzisertib + Crizotinib; first compound 2.53 µM): 0.292
- relative viability (Tanzisertib + Crizotinib; first compound 8 µM): 0.293
- relative viability (Tanzisertib + Foretinib; first compound 0.08 µM): 1.1
- relative viability (Tanzisertib + Foretinib; first compound 0.253 µM): 0.951
- relative viability (Tanzisertib + Foretinib; first compound 0.8 µM): 1.03
- relative viability (Tanzisertib + Foretinib; first compound 2.53 µM): 0.99
- relative viability (Tanzisertib + Foretinib; first compound 8 µM): 1.01
- relative viability (Tanzisertib + OSI-027; first compound 0.08 µM): 1.26
- relative viability (Tanzisertib + OSI-027; first compound 0.253 µM): 0.869
- relative viability (Tanzisertib + OSI-027; first compound 0.8 µM): 0.939
- relative viability (Tanzisertib + OSI-027; first compound 2.53 µM): 0.955
- relative viability (Tanzisertib + OSI-027; first compound 8 µM): 0.946

Cell Line: PC-3 [JPC-3]
- relative viability (Tanzisertib + Alpelisib; first compound 0.08 µM): 1.05
- relative viability (Tanzisertib + Alpelisib; first compound 0.253 µM): 1.07
- relative viability (Tanzisertib + Alpelisib; first compound 0.8 µM): 1.12
- relative viability (Tanzisertib + Alpelisib; first compound 2.53 µM): 1.03
- relative viability (Tanzisertib + Alpelisib; first compound 8 µM): 0.972
- relative viability (Tanzisertib + Crizotinib; first compound 0.08 µM): 0.969
- relative viability (Tanzisertib + Crizotinib; first compound 0.253 µM): 1.05
- relative viability (Tanzisertib + Crizotinib; first compound 0.8 µM): 0.989
- relative viability (Tanzisertib + Crizotinib; first compound 2.53 µM): 0.971
- relative viability (Tanzisertib + Crizotinib; first compound 8 µM): 0.994
- relative viability (Tanzisertib + Foretinib; first compound 0.08 µM): 1.07
- relative viability (Tanzisertib + Foretinib; first compound 0.253 µM): 1.06
- relative viability (Tanzisertib + Foretinib; first compound 0.8 µM): 1.08
- relative viability (Tanzisertib + Foretinib; first compound 2.53 µM): 1.06
- relative viability (Tanzisertib + Foretinib; first compound 8 µM): 0.889
- relative viability (Tanzisertib + OSI-027; first compound 0.08 µM): 0.862
- relative viability (Tanzisertib + OSI-027; first compound 0.253 µM): 0.721
- relative viability (Tanzisertib + OSI-027; first compound 0.8 µM): 0.833
- relative viability (Tanzisertib + OSI-027; first compound 2.53 µM): 0.789
- relative viability (Tanzisertib + OSI-027; first compound 8 µM): 0.699

Cell Line: PC-14
- relative viability (Tanzisertib + Alpelisib; first compound 0.08 µM): 0.942
- relative viability (Tanzisertib + Alpelisib; first compound 0.253 µM): 0.947
- relative viability (Tanzisertib + Alpelisib; first compound 0.8 µM): 0.943
- relative viability (Tanzisertib + Alpelisib; first compound 2.53 µM): 0.873
- relative viability (Tanzisertib + Alpelisib; first compound 8 µM): 0.57
- relative viability (Tanzisertib + Crizotinib; first compound 0.08 µM): 0.979
- relative viability (Tanzisertib + Crizotinib; first compound 0.253 µM): 0.878
- relative viability (Tanzisertib + Crizotinib; first compound 0.8 µM): 0.994
- relative viability (Tanzisertib + Crizotinib; first compound 2.53 µM): 0.883
- relative viability (Tanzisertib + Crizotinib; first compound 8 µM): 0.574
- relative viability (Tanzisertib + Foretinib; first compound 0.08 µM): 1.05
- relative viability (Tanzisertib + Foretinib; first compound 0.253 µM): 0.983
- relative viability (Tanzisertib + Foretinib; first compound 0.8 µM): 0.933
- relative viability (Tanzisertib + Foretinib; first compound 2.53 µM): 0.951
- relative viability (Tanzisertib + Foretinib; first compound 8 µM): 0.61
- relative viability (Tanzisertib + OSI-027; first compound 0.08 µM): 1.28
- relative viability (Tanzisertib + OSI-027; first compound 0.253 µM): 0.745
- relative viability (Tanzisertib + OSI-027; first compound 0.8 µM): 0.723
- relative viability (Tanzisertib + OSI-027; first compound 2.53 µM): 0.816
- relative viability (Tanzisertib + OSI-027; first compound 8 µM): 0.427

Cell Line: RERF-LC-KJ
- relative viability (Tanzisertib + Alpelisib; first compound 0.08 µM): 0.819
- relative viability (Tanzisertib + Alpelisib; first compound 0.253 µM): 0.754
- relative viability (Tanzisertib + Alpelisib; first compound 0.8 µM): 0.918
- relative viability (Tanzisertib + Alpelisib; first compound 2.53 µM): 0.777
- relative viability (Tanzisertib + Alpelisib; first compound 8 µM): 0.719
- relative viability (Tanzisertib + Crizotinib; first compound 0.08 µM): 0.865
- relative viability (Tanzisertib + Crizotinib; first compound 0.253 µM): 0.804
- relative viability (Tanzisertib + Crizotinib; first compound 0.8 µM): 0.859
- relative viability (Tanzisertib + Crizotinib; first compound 2.53 µM): 0.856
- relative viability (Tanzisertib + Crizotinib; first compound 8 µM): 0.798
- relative viability (Tanzisertib + Foretinib; first compound 0.08 µM): 0.929
- relative viability (Tanzisertib + Foretinib; first compound 0.253 µM): 0.788
- relative viability (Tanzisertib + Foretinib; first compound 0.8 µM): 0.873
- relative viability (Tanzisertib + Foretinib; first compound 2.53 µM): 0.841
- relative viability (Tanzisertib + Foretinib; first compound 8 µM): 0.842
- relative viability (Tanzisertib + OSI-027; first compound 0.08 µM): 0.625
- relative viability (Tanzisertib + OSI-027; first compound 0.253 µM): 0.566
- relative viability (Tanzisertib + OSI-027; first compound 0.8 µM): 0.598
- relative viability (Tanzisertib + OSI-027; first compound 2.53 µM): 0.503
- relative viability (Tanzisertib + OSI-027; first compound 8 µM): 0.489

Cell Line: SK-LU-1
- relative viability (Tanzisertib + Alpelisib; first compound 0.08 µM): 1.15
- relative viability (Tanzisertib + Alpelisib; first compound 0.253 µM): 0.976
- relative viability (Tanzisertib + Alpelisib; first compound 0.8 µM): 1.12
- relative viability (Tanzisertib + Alpelisib; first compound 2.53 µM): 1.23
- relative viability (Tanzisertib + Alpelisib; first compound 8 µM): 0.912
- relative viability (Tanzisertib + Crizotinib; first compound 0.08 µM): 0.994
- relative viability (Tanzisertib + Crizotinib; first compound 0.253 µM): 0.776
- relative viability (Tanzisertib + Crizotinib; first compound 0.8 µM): 1.03
- relative viability (Tanzisertib + Crizotinib; first compound 2.53 µM): 1.05
- relative viability (Tanzisertib + Crizotinib; first compound 8 µM): 0.834
- relative viability (Tanzisertib + Foretinib; first compound 0.08 µM): 0.837
- relative viability (Tanzisertib + Foretinib; first compound 0.253 µM): 0.755
- relative viability (Tanzisertib + Foretinib; first compound 0.8 µM): 0.807
- relative viability (Tanzisertib + Foretinib; first compound 2.53 µM): 0.815
- relative viability (Tanzisertib + Foretinib; first compound 8 µM): 0.781
- relative viability (Tanzisertib + OSI-027; first compound 0.08 µM): 0.392
- relative viability (Tanzisertib + OSI-027; first compound 0.253 µM): 0.324
- relative viability (Tanzisertib + OSI-027; first compound 0.8 µM): 0.319
- relative viability (Tanzisertib + OSI-027; first compound 2.53 µM): 0.354
- relative viability (Tanzisertib + OSI-027; first compound 8 µM): 0.365

Cell Line: SK-MES-1
- relative viability (Tanzisertib + Alpelisib; first compound 0.08 µM): 0.922
- relative viability (Tanzisertib + Alpelisib; first compound 0.253 µM): 0.904
- relative viability (Tanzisertib + Alpelisib; first compound 0.8 µM): 0.951
- relative viability (Tanzisertib + Alpelisib; first compound 2.53 µM): 0.921
- relative viability (Tanzisertib + Alpelisib; first compound 8 µM): 0.856
- relative viability (Tanzisertib + Crizotinib; first compound 0.08 µM): 0.986
- relative viability (Tanzisertib + Crizotinib; first compound 0.253 µM): 0.97
- relative viability (Tanzisertib + Crizotinib; first compound 0.8 µM): 0.961
- relative viability (Tanzisertib + Crizotinib; first compound 2.53 µM): 0.965
- relative viability (Tanzisertib + Crizotinib; first compound 8 µM): 0.916
- relative viability (Tanzisertib + Foretinib; first compound 0.08 µM): 0.971
- relative viability (Tanzisertib + Foretinib; first compound 0.253 µM): 0.917
- relative viability (Tanzisertib + Foretinib; first compound 0.8 µM): 0.889
- relative viability (Tanzisertib + Foretinib; first compound 2.53 µM): 0.992
- relative viability (Tanzisertib + Foretinib; first compound 8 µM): 0.7
- relative viability (Tanzisertib + OSI-027; first compound 0.08 µM): 0.677
- relative viability (Tanzisertib + OSI-027; first compound 0.253 µM): 0.588
- relative viability (Tanzisertib + OSI-027; first compound 0.8 µM): 0.597
- relative viability (Tanzisertib + OSI-027; first compound 2.53 µM): 0.591
- relative viability (Tanzisertib + OSI-027; first compound 8 µM): 0.501

Cell Line: SW 1573
- relative viability (Tanzisertib + Alpelisib; first compound 0.08 µM): 0.823
- relative viability (Tanzisertib + Alpelisib; first compound 0.253 µM): 0.656
- relative viability (Tanzisertib + Alpelisib; first compound 0.8 µM): 0.735
- relative viability (Tanzisertib + Alpelisib; first compound 2.53 µM): 0.81
- relative viability (Tanzisertib + Alpelisib; first compound 8 µM): 0.578
- relative viability (Tanzisertib + Crizotinib; first compound 0.08 µM): 0.769
- relative viability (Tanzisertib + Crizotinib; first compound 0.253 µM): 0.798
- relative viability (Tanzisertib + Crizotinib; first compound 0.8 µM): 0.769
- relative viability (Tanzisertib + Crizotinib; first compound 2.53 µM): 0.872
- relative viability (Tanzisertib + Crizotinib; first compound 8 µM): 0.611
- relative viability (Tanzisertib + Foretinib; first compound 0.08 µM): 0.73
- relative viability (Tanzisertib + Foretinib; first compound 0.253 µM): 0.92
- relative viability (Tanzisertib + Foretinib; first compound 0.8 µM): 0.898
- relative viability (Tanzisertib + Foretinib; first compound 2.53 µM): 0.933
- relative viability (Tanzisertib + Foretinib; first compound 8 µM): 0.819
- relative viability (Tanzisertib + OSI-027; first compound 0.08 µM): 0.829
- relative viability (Tanzisertib + OSI-027; first compound 0.253 µM): 0.594
- relative viability (Tanzisertib + OSI-027; first compound 0.8 µM): 0.558
- relative viability (Tanzisertib + OSI-027; first compound 2.53 µM): 0.592
- relative viability (Tanzisertib + OSI-027; first compound 8 µM): 0.484
